Where “and” joins values, the source holds several entries; their conditions need not be identical. Equal values may be shown once. Inconclusive results and toxic doses are left out. Residues, ends and D or L forms follow the SMILES beside them.

The experiment deals with BDF1 mice, P388 leukemia ip, median survival T/C. The experiment is described as follows: NCI In Vivo Anticancer Drug Screen. Data for tumor model P388 Leukemia (intraperitoneal) in B6D2F1 (BDF1) mice. As to conditions: endpoint: median survival time, higher = longer survival. The procedure, abridged: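 Reported as T/C, where T is the survival measurement in dosed animals and C the same measurement in vehicle controls.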

Setting [1] is: dose: 12.5 mg/kg/injection, schedule: Q04DX003 (ip), vehicle: saline.
Where [2] appears, read: dose: 25.0 mg/kg/injection, schedule: Q04DX003 (ip), vehicle: saline.
[3] abbreviates: dose: 50.0 mg/kg/injection, schedule: Q04DX003 (ip), vehicle: saline.
Where [4] appears, read: dose: 100.0 mg/kg/injection, schedule: Q04DX003 (ip), vehicle: saline.
[5] abbreviates: dose: 12.5 mg/kg/injection, schedule: Q01DX009 (ip), vehicle: saline.
Setting [6] is: dose: 25.0 mg/kg/injection, schedule: Q01DX009 (ip), vehicle: saline.
Where [7] appears, read: dose: 200.0 mg/kg/injection, schedule: Q04DX003 (ip), vehicle: saline.
The mark [8] stands for this setting: dose: 100.0 mg/kg/injection, schedule: Q04DX002 (ip), vehicle: saline with Tween-80.
The mark [9] stands for this setting: dose: 200.0 mg/kg/injection, schedule: Q04DX002 (ip), vehicle: saline with Tween-80.
The mark [10] stands for this setting: dose: 400.0 mg/kg/injection, schedule: Q04DX002 (ip), vehicle: saline with Tween-80.
[11] abbreviates: dose: 100.0 mg/kg/injection, schedule: Q01DX009 (ip), vehicle: saline with Tween-80.
The mark [12] stands for this setting: dose: 400.0 mg/kg/injection, schedule: Q04DX003 (ip), vehicle: saline.
Setting [13] is: dose: 1.56 mg/kg/injection, schedule: Q01DX009 (ip), vehicle: saline.
The mark [14] stands for this setting: dose: 6.25 mg/kg/injection, schedule: Q01DX009 (ip), vehicle: saline.
Where [15] appears, read: dose: 50.0 mg/kg/injection, schedule: Q01DX009 (ip), vehicle: saline.
Where [16] appears, read: dose: 100.0 mg/kg/injection, schedule: Q01DX009 (ip), vehicle: saline.
[17] abbreviates: dose: 200.0 mg/kg/injection, schedule: Q01DX009 (ip), vehicle: saline.
[18] abbreviates: dose: 50.0 mg/kg/injection, schedule: Q01DX009 (ip), vehicle: saline with Tween-80.
[19] abbreviates: dose: 200.0 mg/kg/injection, schedule: Q01DX009 (ip), vehicle: saline with Tween-80.
The mark [20] stands for this setting: dose: 400.0 mg/kg/injection, schedule: Q01DX009 (ip), vehicle: saline with Tween-80.
Setting [21] is: dose: 100.0 mg/kg/injection, schedule: Q04DX003 (ip), vehicle: Klucel (hydroxypropylcellulose) (HPC).

With `Cc1c(N)ncc2ccccc12`, the T/C under setting [1] is 115 % of control, the T/C under setting [2] was 108 % of control, the T/C under setting [3] is 99 % of control and the T/C under setting [4] is 118 % of control.

In the case of `N/C(=N\O)c1nn(C2OC(CO)C(O)C2O)c2ncnc(N)c12` (stereo unspecified), the T/C was 102 % of control under setting [5]; 115 % of control under setting [1]; 114 % of control under setting [6]; 105 % of control and 116 % of control under setting [2]; 110 % of control and 112 % of control under setting [3]; 105 % of control and 116 % of control under setting [4]. Besides, the T/C under setting [7] is 112 % of control.

Regarding `CCC(C)OP1(=S)OCC(C)O1` (stereo unspecified), the T/C was 115 % of control under setting [8], 106 % of control under setting [9] and 118 % of control under setting [10].

As for `O=S(=O)(Sc1ccc(N(CCCl)CCCl)cc1)c1ccc(N(CCCl)CCCl)cc1`, the T/C was 122 % of control under setting [11] and 110 % of control (dose: 132.0 mg/kg/injection, schedule: Q01DX009 (ip), vehicle: saline with Tween-80).

With `c1ccncc1`, the T/C is 96 % of control under setting [4], 102 % of control under setting [7] and 105 % of control under setting [12].

As to `CC1(C)C(=O)C(C)(C)C1=NO`, the T/C is 95 % of control under setting [4], 100 % of control under setting [7] and 95 % of control under setting [12].

As to `COc1ccc2c(c1)c1c(C)c3cnccc3c(C)c1n2CCCN`, the T/C under setting [13] was 95 % of control; the T/C (dose: 3.12 mg/kg/injection, schedule: Q01DX009 (ip), vehicle: saline) is 95 % of control; the T/C (dose: 3.12 mg/kg/injection, schedule: Q04DX003 (ip), vehicle: saline) was 112 % of control; the T/C under setting [14] is 111 % of control; the T/C (dose: 6.25 mg/kg/injection, schedule: Q04DX003 (ip), vehicle: saline) was 121 % of control; the T/C under setting [5] is 105 % of control. In addition, the T/C is 107 % of control under setting [1]; 101 % of control and 104 % of control under setting [2].

For `O=C(O)C1=NNC(C(=O)O)=NN1`, the T/C is, setting by setting: under setting [15], 98 % of control; under setting [16], 100 % of control; under setting [17], 98 % of control.

Consider `COC(=O)C(NC(=O)C(NC(=O)C(N)C(C)C)C(C)C)C(C)C` (stereo not drawn) (H-Val-Val-Val-OMe; configuration not given here), for which the T/C (dose: 50.0 mg/kg/injection, schedule: Q01DX005 (ip), vehicle: saline) was 101 % of control; the T/C (dose: 100.0 mg/kg/injection, schedule: Q01DX005 (ip), vehicle: saline) was 99 % of control; the T/C (dose: 200.0 mg/kg/injection, schedule: Q01DX005 (ip), vehicle: saline) was 92 % of control.

`COc1ccc2c(C#N)cc3c4ccccc4ncc3c2c1`: the T/C runs as follows: (dose: 12.5 mg/kg/injection, schedule: Q01DX009 (ip), vehicle: distilled water + Tween-80) 107 % of control; (dose: 25.0 mg/kg/injection, schedule: Q01DX009 (ip), vehicle: distilled water + Tween-80) 113 % of control; (dose: 50.0 mg/kg/injection, schedule: Q01DX009 (ip), vehicle: distilled water + Tween-80) 88 % of control; (dose: 100.0 mg/kg/injection, schedule: Q01DX009 (ip), vehicle: distilled water + Tween-80) 88 % of control.

With `CC(=O)Nc1cc(OC(C)=O)n(-c2ccccc2)n1`, the T/C (dose: 87.5 mg/kg/injection, schedule: Q01DX009 (ip), vehicle: saline with Tween-80) is 97 % of control; the T/C (dose: 175.0 mg/kg/injection, schedule: Q01DX009 (ip), vehicle: saline with Tween-80) is 86 % of control; the T/C (dose: 350.0 mg/kg/injection, schedule: Q01DX009 (ip), vehicle: saline with Tween-80) was 98 % of control.

For `[N-]=[N+]=CC(=O)OCC(N)C(=O)O` (stereo unspecified), the T/C was 110 % of control under setting [16]; 109 % of control under setting [4]; 110 % of control under setting [17]; 109 % of control under setting [7]; 118 % of control under setting [12].

Take `C=CCCCCCCCCC(=O)N(CC#N)CC(C)C`: the T/C is, setting by setting: under setting [18], 100 % of control; under setting [11], 109 % of control; under setting [19], 109 % of control.

With `O=S(=O)(Nc1ccc(O)c(Cl)c1)c1ccccc1`, the T/C under setting [11] was 86 % of control, the T/C under setting [19] was 100 % of control and the T/C under setting [20] was 104 % of control.

On to `CC1=CC2C(C3C=CC2(C)C(=O)C3(C)Cc2ccccc2)C(C)(Cc2ccccc2)C1=O` (stereo unspecified), for which the T/C is 95 % of control (dose: 100.0 mg/kg/injection, schedule: Q01DX001 (ip), vehicle: Klucel (hydroxypropylcellulose) (HPC)); 95 % of control (dose: 200.0 mg/kg/injection, schedule: Q01DX001 (ip), vehicle: Klucel (hydroxypropylcellulose) (HPC)); 90 % of control (dose: 400.0 mg/kg/injection, schedule: Q01DX001 (ip), vehicle: Klucel (hydroxypropylcellulose) (HPC)).

On to `COC1/C=C/OC2(C)Oc3c(C)c(O)c4c(O)c5c(c(O)c4c3C2=O)CN(C)C(=N5)/C(C)=C\C=C\C(C)C(O)C(C)C(O)C(C)C(OC(C)=O)C1C` (stereo unspecified), for which the T/C was 97 % of control under setting [8], 97 % of control under setting [9] and 116 % of control under setting [10].

With `CCOC(=S)S`, the T/C is, setting by setting: under setting [16], 100 % of control; under setting [17], 95 % of control.

Turning to `C[CH2][Pb]([CH2]C)([CH2]C)[O]C(=O)c1ccc(N)cc1`, the T/C is 100 % of control (dose: 0.75 mg/kg/injection, schedule: Q01DX009 (ip), vehicle: Klucel (hydroxypropylcellulose) (HPC)); 110 % of control (dose: 1.5 mg/kg/injection, schedule: Q01DX009 (ip), vehicle: Klucel (hydroxypropylcellulose) (HPC)); 111 % of control (dose: 1.56 mg/kg/injection, schedule: Q01DX009 (ip), vehicle: Klucel (hydroxypropylcellulose) (HPC)); 110 % of control and 117 % of control (dose: 3.0 mg/kg/injection, schedule: Q01DX009 (ip), vehicle: Klucel (hydroxypropylcellulose) (HPC)); 114 % of control and 119 % of control (dose: 3.12 mg/kg/injection, schedule: Q01DX009 (ip), vehicle: Klucel (hydroxypropylcellulose) (HPC)); 119 % of control and 122 % of control (dose: 6.0 mg/kg/injection, schedule: Q01DX009 (ip), vehicle: Klucel (hydroxypropylcellulose) (HPC)). The T/C was 104 % of control (dose: 6.25 mg/kg/injection, schedule: Q01DX009 (ip), vehicle: Klucel (hydroxypropylcellulose) (HPC)); 99 % of control (dose: 12.0 mg/kg/injection, schedule: Q01DX009 (ip), vehicle: Klucel (hydroxypropylcellulose) (HPC)); 93 % of control and 106 % of control (dose: 12.5 mg/kg/injection, schedule: Q01DX009 (ip), vehicle: Klucel (hydroxypropylcellulose) (HPC)).

`Cc1cc(Cl)ccc1NC(=O)c1ccccc1C(=O)O`: the T/C was 91 % of control under setting [21]; 91 % of control (dose: 200.0 mg/kg/injection, schedule: Q04DX003 (ip), vehicle: Klucel (hydroxypropylcellulose) (HPC)); 87 % of control (dose: 400.0 mg/kg/injection, schedule: Q04DX003 (ip), vehicle: Klucel (hydroxypropylcellulose) (HPC)).

As for `CS(=O)(=O)/C=C(\c1ccccc1)c1cccs1`, the T/C by setting is: under setting [18], 114 % of control; under setting [11], 100 % of control; under setting [19], 96 % of control.

For the compound `NC(=O)CCC(N)C(=O)O.[Cl-].[Cl-].[Cl-].[Cl-].[Pt+2]` (stereo unspecified), the T/C under setting [13] is 106 % of control; the T/C (dose: 3.13 mg/kg/injection, schedule: Q01DX009 (ip), vehicle: saline) was 107 % of control; the T/C under setting [14] was 124 % of control; the T/C under setting [5] is 153 % of control; the T/C under setting [6] was 172 % of control.

In the case of `Cc1ccc(-n2c(O)c(C=N)c(=O)n(-c3ccc(C)cc3)c2=O)cc1`, the T/C is, setting by setting: under setting [11], 104 % of control; under setting [19], 104 % of control; under setting [20], 95 % of control.

For the compound `COc1ccc(C(O)CNC(=O)c2ccccc2)cc1` (stereo unspecified), the T/C (dose: 66.0 mg/kg/injection, schedule: Q04DX003 (ip), vehicle: Klucel (hydroxypropylcellulose) (HPC)) was 109 % of control and 110 % of control; the T/C under setting [21] is 255 % of control and 104 % of control and 115 % of control; the T/C (dose: 150.0 mg/kg/injection, schedule: Q04DX003 (ip), vehicle: Klucel (hydroxypropylcellulose) (HPC)) was 109 % of control and 115 % of control.

For `NC1=NNC(N)=NN1`, the T/C is, setting by setting: under setting [5], 94 % of control; under setting [6], 100 % of control; under setting [15], 96 % of control.

Source of the values: PubChem BioAssay AID328 (DTP/NCI, 2004).
